“Also recorded” adds a separate entry of the source.
Tested on: MCF10A cells
Experiment: Flow cytometry of cell cycle distribution and DNA synthesis (EdU/DAPI)
Assay type: cell-based, human
Conditions: for cell cycle distribution: 24 hours
Protocol: (c) A typical profile obtained by flow cytometry of MCF10A cells labelled with EdU and DAPI that indicates the gating applied in order to determine the percentage of cells with sub-G1 DNA content (sub-G1), G1 cells (G1), replicating early-mid S phase cells (Early-Mid S/EdU+), replicating mid-late S phase cells (Mid-Late S/EdU+), cells with S phase DNA content but not replicating (2n<& <4n/EdU−), and cells either in G2 or mitosis (G2/M).(d-f) MCF10A cells were mock treated or treated with 10 μM XL413, in the presence or absence of increasing concentrations of the CDK8 inhibitor BI-1347, for 24 hours. (d) Cells were labelled with EdU for last 30 minutes and DNA synthesis, DNA content and cell cycle distribution were assessed by flow cytometry and analysed using the gating strategy described in above (FIG. 2c). (e) Distribution of cells in the cell cycle. (f) Fluorescence intensity, proportional to EdU incorporation, in individual S phase cells. Long and short horizontal black lines indicate the median and the interquartile range, respectively, extending from the 25th to the 75th percentile for ˜3,810 cells for each condition. Data is from a single experiment.
FIG. 3: CDK8 activity is required for efficient DNA synthesis under conditions of limited CDC7 kinase activity (a-c) MCF10A cells were mock treated or treated with 31 nM BI-1347, in the presence or absence of increasing concentrations of the CDC7 inhibitors, XL413 (a-c) and TAK-931 (d-f), for 24 hours. (a and d) Cells were labelled with EdU for last 30 minutes and DNA synthesis, DNA content and cell cycle distribution were assessed by flow cytometry and analysed using the gating strategy described in FIG. 2c.c (b and e) distribution of cells in the cell cycle. (c and f) Fluorescence intensity, proportional to EdU incorporation, in individual S phase cells. Long and short horizontal black lines indicate the median and the interquartile range, respectively, extending from the 25th to the 75th percentile for ˜4,190 cells for each condition. Data is from a single experiment.
To analyse the cell cycle and DNA synthesis, nascent DNA was labelled by incubating cells with 10 μM EdU for either 20 or 30 minutes prior to harvest, washing with PBS, and then by resuspension in PBS containing 70% EtOH for 1 hour at −20° C. After a PBS wash, incorporated EdU was labelled by incubating cells in click reaction buffer (PBS containing 10 μM 6-Carboxyfluorescine-TEG-azide, 10 mM Sodium-L-ascorbate, 2 mM Copper-II-Sulphate) for 30 minutes protected from light. Cells were washed in PBS containing 1% BSA, 5% Tween 20 and then DNA stained in PBS containing 1% BSA and 1 μg/ml DAPI. All washes involve: centrifugation at 400×g for 5 minutes, removal of supernatant from pellet, resuspension in the appropriate buffer, recentrifugation and removal of supernatant from the pellet prior to the next step.
Fluorescence intensity data for 6-Carboxyfluorescine (488_530_30 nm) and DAPI (405_450_50 nm) were acquired for 10,000 single cells on a BD FACS Canto II and analysed using FlowJo software. To further analyse fluorescence intensity, proportional to EdU incorporation, for individual cells, gates were applied on DAPI-EdU biparametric dot plots to select for EdU positive S phase cells using FlowJo. According to the required analysis these gates included either all S phase cells, or only early or late S phase cells. Fluorescence intensity (488_530_30) values per cell were exported and plotted as scatter dot plots using GraphPad prism. For comparisons of mean fluorescence intensity of a cell population across three biological repeat experiments, all fluorescence intensity values were normalised to the maximum fluorescence intensity of the untreated control sample of each respective experiment to account for absolute differences in EdU staining. […]

SMILES: Cl.O=c1[nH]c([C@@H]2CCCN2)nc2c1oc1ccc(Cl)cc12 [XL413]
- rate of DNA synthesis: strongly reduced; also recorded: much more profound decrease
- rate of DNA synthesis of S phase cells: corresponding decrease
- cell cycle distribution (10 μM XL413 alone): accumulation of cells in mid to late S phase
- cell cycle distribution (CDC7 inhibitor alone at increasing concentrations, absence of CDK8/CDK19i): dose-dependent accumulation of mid-late S phase cells
- cell cycle distribution (CDC7 inhibitor at increasing concentrations together with the CDK8/CDK19 inhibitor (31 nM BI-1347), all doses tested): more pronounced accumulation of cells in mid-late S phase
